Measurements: US20180057547A1, “DIAGNOSTIC AND THERAPEUTIC EPITOPE, AND TRANSGENIC PLANT” (OXFORD UNIVERSITY INNOVATION LIMITED, priority 1999, published 2018)
“Also recorded” adds a separate entry of the source.

Columns and labels:
[1] = tested on: PBMC from coeliac subjects; assay: IFNγ ELISPOT with PBMC of coeliac disease subjects after bread/gluten challenge; type: cell-based, human; conditions: for % bioactivity compared to unmodified A-gliadin 57-73 QE65 / greater bioactivity than the parent peptide: 50 mcg/ml; for % bioactivity compared to unmodified A-gliadin 57-73 QE65: PBMC from 8 subjects, mean response as % A-G 57-73 QE65 mean response, blank 7.1%; for Mean response as % of the response to the immunodominant epitope: 57-73 A-gliadin epitope substituted at position 65, synthetic peptides 50 μg/ml, 3 coeliac subjects, 6 days after commencing gluten challenge; for % agonist.: agonist activity compared to A-gliadin 57-73 QE65 as shown in Table 9; for ELISpot response as % A-gliadin 57-73 QE65, E-substituted: glutamate-substituted peptide; for ELISpot response as % A-gliadin 57-73 QE65, E-substituted / ELISpot response as % A-gliadin 57-73 QE65, Wildtype + tTG / ELISpot response as % A-gliadin 57-73 QE65, Wild type: 25 mcg/ml, 4 subjects, blank 5 (1) %; for ELISpot response as % A-gliadin 57-73 QE65, Wildtype + tTG: tTG-treated wild type peptide; for ELISpot response as % A-gliadin 57-73 QE65, Wild type: unmodified gliadin peptide; for Elisopt response TG: peptide treated with transglutaminase; for Elisopt response TG / Elisopt response No TG: mean (range), 3 subjects, as in Example 2; for Elisopt response No TG: peptide without transglutaminase treatment; for greater bioactivity than the parent peptide: parent A-gliadin 57-73 QE65
[2] = tested on: PBMC from coeliac volunteers; assay: Antagonism of A-gliadin 57-73 QE65 interferon gamma ELISPOT response (simultaneous addition of peptide); type: cell-based, human
Description: Simultaneous addition of peptide (50 μg/ml) or buffer and A-gliadin 57-73 QE65 (10 μg/ml) in IFNgamma ELISPOT using PBMC from coeliac volunteers 6 days after commencing 3 day gluten challenge (n=5). Results were expressed as response with peptide plus A-G 57-73 QE65 (mean of duplicates) as % response with buffer plus A-G 57-73 QE65 (mean of 20 replicates). (See Table 9).

[3] = tested on: gluten-specific T cell clones and lines; conditions: from original publications; iTCC intestinal T cell clone, iTCL intestinal polyclonal T cell line, bTCC peripheral blood T cell clone; NS not given; cited from earlier work
[4] = tested on: CD4 or CD8 depleted PBMC from coeliac disease subjects; assay: IFNγ ELISPOT with CD4 and CD8 magnetic bead depleted PBMC; type: cell-based, human
Description: Anti-CD4 or anti-CD8 coated magnetic beads (Dynal, Oslo, Norway) were washed four times with RPMI then incubated with PBMC in complete RPMI containing 10% heat inactivated human AB serum (5×10^6 cells/ml) for 30 minutes on ice. Beads were removed using a magnet and cells remaining counted. […] HLA-class II restriction of the immune response to tTG-treated A-gliadin 56-75 was established by incubating PBMC (5×10^6 cells/ml) with anti-HLA-DR (L243), -DQ (L2), and -DP (B7.21) monoclonal antibodies (10 μg/ml) at room temperature for one hour prior to the addition of peptide.

[5] = tested on: PBMC from newly diagnosed coeliac subjects; assay: Interferon gamma ELISpot with PBMC of newly diagnosed coeliac subjects, gluten challenge after short GFD; type: cell-based, human; conditions: 25 mcg/ml
Description: Newly diagnosed DQ2+ coeliac subjects were recruited from the gastroenterology outpatient service. PBMC were prepared and tested in interferon gamma ELISpot assays before subjects commenced GFD, and at one or two weeks after commencing GFD. In addition, gluten challenge (3 days consuming 4 slices standard white bread, 200 g/day) was performed at one or two weeks after starting GFD. PBMC were prepared and assayed on day six are after commencing gluten challenge. A-gliadin 57-73 QE65 (A), P04724 84-100 QE92 (B) (alone and combined) and A-gliadin 57-73 QP65 (P65) (non-bioactive variant, see above) (all 25 mcg/ml) were assessed.

[6] = substituted variant 50 μg/ml plus A-gliadin 57-73 QE65 10 μg/ml, n=5
[7] = coeliacs who had followed GFD for only one week
[8] = gluten challenge 2 weeks after commencing GFD, compared with A-gliadin 57-73 QP65 and blank
[9] = naturally occurring polymorphisms of A-gliadin 57-73 QE65, 50 μg/ml plus A-gliadin 57-73 QE65 10 μg/ml

## N[C@@H](CS)C(=O)O [C65]
[1]
  % bioactivity compared to unmodified A-gliadin 57-73 QE65: 42%
  Mean response as % of the response to the immunodominant epitope: 62%

## N[C@@H](CC(=O)O)C(=O)O [D65]
[1]
  % bioactivity compared to unmodified A-gliadin 57-73 QE65: 95%
  Mean response as % of the response to the immunodominant epitope: 65%

## N[C@@H](Cc1c[nH]cn1)C(=O)O [H65]
[1]
  % bioactivity compared to unmodified A-gliadin 57-73 QE65: 26%
  % agonist.: 16%
[1]; listed as Histidine
  Mean response as % of the response to the immunodominant epitope: 8%
[2]; [6]
  % Inhibit. of A-gliadin 57-73 QE65 interferon gamma ELISpot response: 20%

## NCCCC[C@H](N)C(=O)O [K65]
[1]
  % bioactivity compared to unmodified A-gliadin 57-73 QE65: 8%
  % agonist.: 8%
[1]; listed as Lysine
  Mean response as % of the response to the immunodominant epitope: 4%
[2]; [6]
  % Inhibit. of A-gliadin 57-73 QE65 interferon gamma ELISpot response: 15%

## CC(C)C[C@H](N)C(=O)O [L65]
[1]
  % bioactivity compared to unmodified A-gliadin 57-73 QE65: 16%
  Mean response as % of the response to the immunodominant epitope: 33%
  % agonist.: 26%
[2]; [6]
  % Inhibit. of A-gliadin 57-73 QE65 interferon gamma ELISpot response: 20%

## N=C(N)NCCC[C@H](N)C(=O)O [R65]
[1]
  % bioactivity compared to unmodified A-gliadin 57-73 QE65: 11%
  % agonist.: 11%
[1]; listed as Arginine
  Mean response as % of the response to the immunodominant epitope: 1%
[2]; [6]
  % Inhibit. of A-gliadin 57-73 QE65 interferon gamma ELISpot response: 13%

## C[C@@H](O)[C@H](N)C(=O)O [T65]
[1]
  % bioactivity compared to unmodified A-gliadin 57-73 QE65: 7%
  Mean response as % of the response to the immunodominant epitope: 55%
  % agonist.: 19%
[2]; [6]
  % Inhibit. of A-gliadin 57-73 QE65 interferon gamma ELISpot response: 28%

## N[C@@H](Cc1ccc(O)cc1)C(=O)O [Y65]
[1]; listed as Tyrosine
  Mean response as % of the response to the immunodominant epitope: 8%
[1]
  % agonist.: 7%
[2]; [6]
  % Inhibit. of A-gliadin 57-73 QE65 interferon gamma ELISpot response: 12%

## GQQGYYPTSPQQSGQ
[3]
  Frequency: 1/1 (iTCC)

## LGQQQPFPPQQPYPQPQPF
[3]
  Frequency: 1/23 (bTCC)

## LQLQPFPQPQLPYPQPQSFP [A-gliadin 56-75, 20mer of A-gliadin, used tTG-treated]
[4]; Subject 4, tTG treated peptide 0.1 μM
  spot forming cells per million CD8 depleted PBMC: 29 spot forming cells per million CD8 depleted PBMC
[4]; Subject 6, tTG treated peptide 0.1 μM
  spot forming cells per million CD8 depleted PBMC: 535 spot forming cells per million CD8 depleted PBMC
[4]; anti-CD4 and anti-CD8 magnetic bead depletion, two subjects
  cell subset mediating the IFNγ response: CD4 T cell-mediated

## PQLPYPQPELPYPQPQP [P04724 84-100 QE92, glutamate-substituted polymorphism GDA4_WHEAT P04724 84-100 (K)]
[1]
  ELISpot response as % A-gliadin 57-73 QE65, E-substituted: 69 (20) %
  ELISpot response as % A-gliadin 57-73 QE65, Wildtype + tTG: 80 (17) %
  ELISpot response as % A-gliadin 57-73 QE65, Wild type: 14 (4) %
[5]; [7]
  responses after gluten challenge: did not substantially enhance responses
[5]; [8]
  responses after gluten challenge: did induce responses

## PQLPYPQPQLPYPQPQP
[1]
  Elisopt response TG: 109 (41-152)
  Elisopt response No TG: 3 (0-7)

## PQPELPYPQPELPY [reference compound]
[1]
  ELISpot response as % A-gliadin 57-73 QE65, E-substituted: 48 (9) %
  ELISpot response as % A-gliadin 57-73 QE65, Wildtype + tTG: 53 (8) %
  ELISpot response as % A-gliadin 57-73 QE65, Wild type: 13 (6) %
[3]
  Frequency: 11/17 (iTCL)

## PQPQPFLPELPYPQPQS [P04727 79-95 QE65, glutamate-substituted polymorphism GDA7_WHEAT P04727 79-95 (M)]
[2]; [9]
  % Inhibit. of A-gliadin 57-73 QE65 interferon gamma ELISpot response: 6%

## PQPQPFLPQLPYPQPQS
[1]
  Elisopt response TG: 21 (11-33)
  Elisopt response No TG: 10 (0-30)

## PQPQPFPPELPYPQPPP [P04726 82-98 QE90, glutamate-substituted polymorphism GDA6_WHEAT P04726 82-98 (P)]
[2]; [9]
  % Inhibit. of A-gliadin 57-73 QE65 interferon gamma ELISpot response: 5%

## PQPQPFPPELPYPQPQS [P04725 82-98 QE90, glutamate-substituted polymorphism GDA5_WHEAT P04725 82-98 (N)]
[2]; [9]
  % Inhibit. of A-gliadin 57-73 QE65 interferon gamma ELISpot response: 19%

## PQPQPFPPELPYPQTQP [P04723 77-93 QE85, glutamate-substituted polymorphism GDA3_WHEAT P04723 77-93 (O)]
[2]; [9]
  % Inhibit. of A-gliadin 57-73 QE65 interferon gamma ELISpot response: 10%

## PQPQPFPPQLPYPQPPP
[1]
  Elisopt response TG: 19 (11-33)
  Elisopt response No TG: 10 (0-30)

## PQPQPFPPQLPYPQPQS
[1]
  Elisopt response TG: 24 (11-43)
  Elisopt response No TG: 17 (0-40)

## QLQPFLQPELPYSQPQP [Q41509 77-93 QE85, glutamate-substituted polymorphism Q41509 77-93]
[2]; naturally occurring polymorphisms of A-gliadin 57-73 QE65, 50 μg/ml plus A-gliadin 57-73 QE65 10 μg/ml, polymorphism SEQ ID NO 71
  % Inhibit. of A-gliadin 57-73 QE65 interferon gamma ELISpot response: 11%
[2]; naturally occurring polymorphisms of A-gliadin 57-73 QE65, 50 μg/ml plus A-gliadin 57-73 QE65 10 μg/ml, polymorphism SEQ ID NO 76
  % Inhibit. of A-gliadin 57-73 QE65 interferon gamma ELISpot response: 6%

## QLQPFLQPQLPYSQPQP
[1]
  Elisopt response TG: 3 (0-7)
  Elisopt response No TG: 0 (0-1)

## QLQPFPQPELPY [reference compound]
[1]
  ELISpot response as % A-gliadin 57-73 QE65, E-substituted: 8 (3) %
  ELISpot response as % A-gliadin 57-73 QE65, Wildtype + tTG: 19 (1) %
  ELISpot response as % A-gliadin 57-73 QE65, Wild type: 6 (2) %
[3]
  Frequency: 12/17 (iTCL)

## QLQPFPQPELPYPQPQS (listed as Triticum sp.) [A-gliadin 57-73 QE65]
[1]
  Mean response as % of the response to the immunodominant epitope: 100%
  ELISpot response as % A-gliadin 57-73 QE65, E-substituted: 100%
  Elisopt response TG: 100 (100)
  ELISpot response as % A-gliadin 57-73 QE65, Wildtype + tTG: 87 (7) %
  ELISpot response as % A-gliadin 57-73 QE65, Wild type: 18 (7) %
[1]; PBMC after 3 day bread/gluten challenge
  IFNγ ELISPOT response (result in words): induced maximal responses; also recorded: most potent gliadin peptide for induction of interferon gamma
[1]; in vivo (gluten challenge), DQ2
  Frequency: 11/12 in vivo
[5]; [7]
  responses after gluten challenge: did not substantially enhance responses
[5]; [8]
  responses after gluten challenge: did induce responses

## QLQPFPQPELPYSQPQP [P02863 77-93 QE85, glutamate-substituted polymorphism GDA0_WHEAT P02863 77-93 (F)]
[2]; [9]
  % Inhibit. of A-gliadin 57-73 QE65 interferon gamma ELISpot response: 6%

## QLQPFPQPELSYSQPQP [Gliα 3-5 57-73 QE65, glutamate-substituted polymorphism Gli alpha 3,4, 5 57-73 (I)]
[2]; [9]
  % Inhibit. of A-gliadin 57-73 QE65 interferon gamma ELISpot response: 7%

## QLQPFPQPQLPYPQPQL
[1]
  Elisopt response TG: 83 (74-97)
  Elisopt response No TG: 19 (0-33)

## QLQPFPQPQLPYPQPQP
[1]
  Elisopt response TG: 83 (61-113)
  Elisopt response No TG: 12 (0-20)

## QLQPFPQPQLPYSQPQP
[1]
  Elisopt response TG: 53 (44-67)
  Elisopt response No TG: 5 (1-7)

## QLQPFSQPQLPYSQPQP
[1]
  Elisopt response TG: 2 (0-7)
  Elisopt response No TG: 0 (0-0)

## QPQPFPPPELPYPQTQP [Gliα 1,6 58-74 QE66, glutamate-substituted polymorphism Gli alpha 1, 6 58-74 (J)]
[2]; [9]
  % Inhibit. of A-gliadin 57-73 QE65 interferon gamma ELISpot response: 11%

## QQLPQPEQPQQSFPEQERPF [reference compound]
[1]
  ELISpot response as % A-gliadin 57-73 QE65, E-substituted: 10 (5) %
  ELISpot response as % A-gliadin 57-73 QE65, Wildtype + tTG: 18 (7) %
  ELISpot response as % A-gliadin 57-73 QE65, Wild type: 9 (3) %

## QQYPSGEGSFQPSQENPQ [reference compound]
[1]
  ELISpot response as % A-gliadin 57-73 QE65, E-substituted: 14 (8) %
  ELISpot response as % A-gliadin 57-73 QE65, Wildtype + tTG: 9 (3) %
  ELISpot response as % A-gliadin 57-73 QE65, Wild type: 10 (3) %

## Y61: A-gliadin 57-73 QE65 variant, Y at position 61 (QLQPYPQPELPYPQPQS)
[1]
  % bioactivity compared to unmodified A-gliadin 57-73 QE65: 129%
  greater bioactivity than the parent peptide: 30%

## Y70: A-gliadin 57-73 QE65 variant, Y at position 70 (QLQPFPQPELPYPYPQS)
[1]
  % bioactivity compared to unmodified A-gliadin 57-73 QE65: 129%
  greater bioactivity than the parent peptide: 30%
